# Source: PMC10712729, “A Phase I Trial of the Dual MET Kinase/OCT-2 Inhibitor OMO-1 in Metastatic Solid Malignancies Including MET Exon 14 Mutated Lung Cancer” (The Oncologist, 2023)
# What was measured:
# [1] = Pharmacokinetics of OMO-1 in plasma, Module 1 Part A; format: in vivo, human
# Description: (§1) The starting dose was 100 mg BID.
# (§2) Analysis was performed using PKSolver to define Cmax, trough concentration (Ctrough), AUC∞, AUC0-last, Vd, clearance, elimination half-life (t½), and Tmax of OMO-1.[24] In the paired biopsy analysis, expression of total MET and phosphorylated MET was performed by immunohistochemistry.
# phosphorylated MET = molecular target: T1, phosphorylated MET (Homo sapiens, UniProt P08581, DEL963-1009); experiment: Paired biopsy analysis, total and phosphorylated MET by immunohistochemistry; format: in vivo; conditions: one patient, NSCLC with MET exon 14 skipping mutation, 200 mg BID
# T1 construct: from tissue; host or cells: paired tumour biopsies (baseline and on-treatment) of an NSCLC patient
# Description: as §2
# OCT-2 = molecular target: T2, OCT-2 (Homo sapiens, UniProt O15244); experiment: Plasma tryptophan and kynurenine levels to explore OCT-2 inhibition; format: in vivo
# T2 construct: from tissue; host or cells: patients in vivo (endogenous transporter; serum, plasma and urine markers measured)
# T2 sequence (O15244 1-555): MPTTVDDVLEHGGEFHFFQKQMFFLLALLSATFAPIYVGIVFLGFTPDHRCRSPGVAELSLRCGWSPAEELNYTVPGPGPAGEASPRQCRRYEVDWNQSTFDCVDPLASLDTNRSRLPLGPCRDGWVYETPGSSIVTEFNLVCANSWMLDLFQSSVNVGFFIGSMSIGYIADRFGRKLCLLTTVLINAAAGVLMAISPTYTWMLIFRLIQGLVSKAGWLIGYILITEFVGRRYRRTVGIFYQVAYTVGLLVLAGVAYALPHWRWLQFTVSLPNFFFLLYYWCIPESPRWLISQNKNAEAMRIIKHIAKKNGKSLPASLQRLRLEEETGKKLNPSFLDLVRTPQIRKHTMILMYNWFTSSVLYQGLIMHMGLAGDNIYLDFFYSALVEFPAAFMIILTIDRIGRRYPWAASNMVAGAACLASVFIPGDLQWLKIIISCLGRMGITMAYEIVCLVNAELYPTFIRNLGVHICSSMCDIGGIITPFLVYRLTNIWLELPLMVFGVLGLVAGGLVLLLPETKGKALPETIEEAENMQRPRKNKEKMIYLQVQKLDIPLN
# Description: as §1
# [2] = system: MET-activated tumor models; conditions: preclinical ref 21; cited from earlier work
# [3] = system: organic cation transporter 2 (OCT-2); parameters: method as in PMID 14576340; conditions: cited from earlier work
# [4] = parameters: method as in doi:10.1158/1538-7445.am2015-ct309; conditions: healthy human volunteers ref 26; cited from earlier work
smiles,measurement,setting,value
FC(F)(c1ccc2ncccc2c1)c1nnc2ccc(-c3ccncc3)nn12 [OMO-1],"plasma exposure as measured by AUC(0-8 h), dose proportionality",[1]; 100 to 400 mg BID,dose-proportional without accumulation
same,AUC(0-8 h),[1]; RP2D of 250 mg BID,5684 ng·h/mL
same,Cmax,[1]; RP2D of 250 mg BID,1372 ng/mL
same,T½,"[1]; oral, patients",2.5 to 3 h
same,median Tmax,"[1]; range across the dose escalation cohorts, second daily dose 4-5 h after first",5 to 7.8 h
same,phosphorylated MET in on-treatment biopsy,phosphorylated MET,near-complete inhibition
same,total MET levels in on-treatment biopsy,phosphorylated MET,without affecting total MET levels
same,median kynurenin level,"OCT-2; 8 h post-dose, IQR 396-559, pre-dose 509 ng/mL, P = .57",471 ng/mL
same,mean kyn/trp ratio,"OCT-2; 8 h post-dose, pre-dose 57, P < .001",49
same,mean tryptophan plasma level,"OCT-2; cycle 1 day 1, 8 h post-dose, pre-dose 9475 ng/mL, P = .014, 30 patients Module 1",10 605 ng/mL
same,"changes in plasma tryptophan levels and kyn/trp ratio, dependence on dose or Cmax",OCT-2; in vivo,not dose or Cmax dependent
same,tumor growth,[2],complete inhibition of tumor growth
same,inhibition of OCT-2,[3],potent inhibitor
same,renal toxicity,[4],no renal toxicity was observed
